Results published in patent US12139488B2, “Pyrido[3,2-d]pyrimidine compounds uses thereof for treating a proliferative disease” (Universite de Montreal, priority 2021, dated 2024).
Where two headings read alike, the source gives them in different places.

Assays:
[1] = target: BRAF (Homo sapiens (Human), UniProt P15056); assay: BRAF kinase activity assay (ADP-Glo); format: biochemical
Description: (§1) Compound preparation: solid samples of each substances in 1 dram vials were suspended in DMSO (Fisher Scientific) at a stock concentration of 20 mM. Stocks were kept at −20° C. and protected from light.
(§2) In vitro enzymatic reactions were used for evaluating compounds intrinsic activity against BRAF, CRAF and ARAF. […] Separate reactions were performed with the MEK1 substrate and ATP as a blank control.
(§3) For compound treatment, 5 μL/well of test substance solution are placed in a 384-well proxyplate (Perkin Elmer) and mixed with 2× concentrated kinase reactions. The dilution series is selected so that nine concentrations cover a range from 100 nM to 0.01 nM. […] The final concentration of DMSO in the assay is set at 0.05%.
(§4) BRAF and CRAF kinase reactions were carried out for a total of 2 hours at 30° C. and then stopped by ½ dilution in ADP-Glo Reagent (cat #V9102; Promega; part V912C). Reactions were then incubated for 1h at room temperature before addition of one volume of Kinase Detection Reagent (cat #V9102; Promega; part V917A). Plates were then equilibrated at room temperature for 30 minutes before detection of luminescence on a Synergy Neo2 plate reader (Biotek). The effect of each compound dilution on BRAF and CRAF kinase activity was expressed as % inhibition and calculated as follows.
(§5) IC50 values were obtained by plotting the kinase inhibition values and fitting the dose-activity curves using a log(agonist) versus response-variable slope (four parameters) function using either GraphPadPrism (V7.0) or Dotmatics Screening Ultra platform.

[2] = target: CRAF (Homo sapiens, UniProt P04049); assay: CRAF kinase activity assay (ADP-Glo); format: biochemical
Chain of CRAF (P04049 whole entry, looked up): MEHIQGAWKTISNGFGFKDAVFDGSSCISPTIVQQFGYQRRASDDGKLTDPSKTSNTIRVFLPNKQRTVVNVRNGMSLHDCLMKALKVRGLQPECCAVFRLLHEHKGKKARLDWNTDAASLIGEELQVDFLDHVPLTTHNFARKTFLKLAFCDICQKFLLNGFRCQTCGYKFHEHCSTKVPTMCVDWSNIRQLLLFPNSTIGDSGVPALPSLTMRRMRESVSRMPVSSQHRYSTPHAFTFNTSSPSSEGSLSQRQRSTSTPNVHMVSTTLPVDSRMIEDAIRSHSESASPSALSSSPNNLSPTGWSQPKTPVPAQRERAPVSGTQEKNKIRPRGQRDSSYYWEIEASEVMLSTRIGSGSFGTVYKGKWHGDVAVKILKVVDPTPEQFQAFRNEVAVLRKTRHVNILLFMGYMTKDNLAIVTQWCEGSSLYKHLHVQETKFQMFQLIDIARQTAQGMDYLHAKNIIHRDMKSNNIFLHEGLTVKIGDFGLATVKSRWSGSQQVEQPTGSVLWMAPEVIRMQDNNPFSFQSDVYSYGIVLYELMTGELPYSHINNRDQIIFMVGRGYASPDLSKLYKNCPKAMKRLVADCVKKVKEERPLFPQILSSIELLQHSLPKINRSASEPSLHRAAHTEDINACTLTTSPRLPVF
Description: as §1, §2, §3, §4, §5

[3] = tested on: pERK in HCT-116 cells (KRAS G13D); assay: Phospho-ERK inhibition (AlphaLISA SureFire Ultra p-ERK 1/2), HCT116; format: cell-based, human; conditions: for HCT116 pERK % Ymin (lowest value of the IC50 curve): Ymin above −20% = minimal or no paradoxical activation
Outline: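 pERK1/2 (Thr202/Tyr204) AlphaLISA, 1 h cpd, 10 conc. 10 μM→0.33 nM, 0.5% DMSO, RPMI-1640 + 5% FBS. Trametinib = 100%, DMSO = 0%. IC50, 4-param fit.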

[4] = read-out: Kinase IC50 (nM) BRAF
[5] = read-out: Kinase IC50 (nM) CRAF
[6] = HCT116 cells, class symbol before the bracket
[7] = Table 5, read-out: Kinase IC50 (nM) BRAF
[8] = Table 5, read-out: Kinase IC50 (nM) CRAF
[9] = lowest value of the curve, HCT116, Table 5
[10] = lowest % inhibition value of the IC50 curve, HCT116
[11] = first kinase column (c6), * symbols, read-out: Kinase IC50
[12] = § symbols, read-out: Kinase IC50
[13] = Homo sapiens, HCT-116, HCT116 cells, class symbol
[14] = BRAF, read-out: Kinase IC50 (nM), BRAF biochemical kinase assay
[15] = CRAF, read-out: Kinase IC50 (nM), CRAF biochemical kinase assay

Chain of BRAF (P15056 whole entry): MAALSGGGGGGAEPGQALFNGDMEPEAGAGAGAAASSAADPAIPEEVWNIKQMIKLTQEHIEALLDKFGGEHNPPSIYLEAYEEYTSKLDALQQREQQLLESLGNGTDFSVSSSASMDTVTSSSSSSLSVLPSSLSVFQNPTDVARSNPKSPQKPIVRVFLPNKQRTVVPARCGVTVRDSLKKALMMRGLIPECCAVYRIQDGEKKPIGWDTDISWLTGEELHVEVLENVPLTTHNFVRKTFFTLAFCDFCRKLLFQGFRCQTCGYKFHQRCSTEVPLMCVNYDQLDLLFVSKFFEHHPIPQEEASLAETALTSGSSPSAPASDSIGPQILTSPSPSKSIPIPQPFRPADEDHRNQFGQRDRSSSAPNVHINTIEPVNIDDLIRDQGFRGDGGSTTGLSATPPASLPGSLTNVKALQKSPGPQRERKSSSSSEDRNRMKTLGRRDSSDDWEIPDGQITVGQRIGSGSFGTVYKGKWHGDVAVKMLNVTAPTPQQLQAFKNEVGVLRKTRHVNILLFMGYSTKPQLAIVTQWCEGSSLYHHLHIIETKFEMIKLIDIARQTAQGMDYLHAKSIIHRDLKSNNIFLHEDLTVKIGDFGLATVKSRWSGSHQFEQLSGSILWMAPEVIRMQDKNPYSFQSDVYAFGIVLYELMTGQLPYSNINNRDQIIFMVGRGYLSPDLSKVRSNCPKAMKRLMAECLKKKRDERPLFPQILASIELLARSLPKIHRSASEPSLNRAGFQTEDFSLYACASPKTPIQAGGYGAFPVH

Row | SMILES | IC50 [1, 4] [nM] | IC50 [2, 5] [nM] | IC50 [1, 14] [nM] | IC50 [2, 15] [nM] | IC50 ([3]; HCT116 cells) [nM] | HCT116 pERK % Ymin (lowest value of the IC50 curve) ([3]; HCT116 cells) [%] | other results
1 | O=S(=O)(Nc1ccc(F)c(Nc2ncnc3ccc(-n4cc(-c5ncc[nH]5)c5ccccc54)nc23)c1F)c1cccc(Cl)c1Cl [Example 207] | 1 to 10 | 10 to 50 | – | – | – | – | HCT116 pERK Ymin % ([3]; HCT116 cells, Ymin in brackets): −11%; IC50 [3, 6]: 1000 to 10000 nM
2 | O=S(=O)(Nc1ccc(F)c(Nc2ncnc3ccc(-n4nc(-c5nnc(O)o5)c5ccccc54)nc23)c1F)c1cccc(Cl)c1Cl [Example 208] | 1 to 10 | < 10 | – | – | – | – | HCT116 pERK Ymin % ([3]; HCT116 cells, Ymin in brackets): −4%; IC50 [3, 6]: 1000 to 10000 nM
3 | CN(C)c1nnc(-c2nn(-c3ccc4ncnc(Nc5c(F)ccc(NS(=O)(=O)c6cccc(Cl)c6Cl)c5F)c4n3)c3ccccc23)o1 [Example 209] | 1 to 10 | 10 to 50 | – | – | – | – | HCT116 pERK Ymin % ([3]; HCT116 cells, Ymin in brackets): −6%; IC50 [3, 6]: 10000 to 30000 nM
4 | O=S(=O)(Nc1ccc(F)c(Nc2ncnc3ccc(-n4nc(-c5ncc[nH]5)c5ccccc54)nc23)c1F)c1cccc(Cl)c1Cl [Example 212] | 1 to 10 | > 50 | – | – | – | – | HCT116 pERK Ymin % ([3]; HCT116 cells, Ymin in brackets): −13%; IC50 [3, 6]: 1000 to 10000 nM
5 | O=S(=O)(Nc1ccc(F)c(Nc2ncnc3ccc(-n4nc(-c5ncc[nH]5)c5ccccc54)nc23)c1F)c1ccccc1Cl [Example 213] | 1 to 10 | > 50 | – | – | – | – | HCT116 pERK Ymin % ([3]; HCT116 cells, Ymin in brackets): −8%; IC50 [3, 6]: 1000 to 10000 nM
6 | NCC(=O)c1cn(-c2ccc3ncnc(Nc4c(F)ccc(NS(=O)(=O)c5ccccc5Cl)c4F)c3n2)c2ccccc12 [Example 223] | 1 to 10 | > 50 | – | – | – | – | HCT116 pERK Ymin % ([3]; HCT116 cells, Ymin in brackets): −9%; IC50 [3, 6]: 1000 to 10000 nM
7 | COc1ccc(S(=O)(=O)Nc2ccc(F)c(Nc3ncnc4ccc(-n5cnc6ccccc65)nc34)c2Cl)cc1 [Example 239] | – | – | – | – | – | – | IC50 [1, 7]: > 10 nM; IC50 [2, 8]: > 50 nM; IC50 ([3]; HCT116 cells, Table 5): 1000 to 10000 nM; HCT116 pERK Ymin % [3, 9]: 6.7%
8 | O=S(=O)(Nc1ccc(F)c(Nc2ncnc3ccc(-n4cnc5c(-c6cccnc6)cccc54)nc23)c1F)c1ccccc1Cl [Example 243] | 1 to 10 | < 10 | – | – | – | – | HCT116 pERK Ymin % ([3]; HCT116 cells, Ymin in brackets): −3.9%; IC50 [3, 6]: < 500 nM
9 | Cc1c(Cl)csc1S(=O)(=O)Nc1ccc(F)c(Nc2ncnc3ccc(-n4cnc5ccccc54)nc23)c1F [Example 315] | 1 to 10 | < 10 | – | – | – | – | IC50 ([3]; HCT116 cells, 1 h treatment): < 500 nM; HCT116 pERK Ymin % [3, 10]: −12%
10 | Cc1csc(S(=O)(=O)Nc2ccc(F)c(Nc3ncnc4ccc(-n5cnc6ccccc65)nc34)c2F)c1Cl [Example 316, N-(3-((6-(1H-benzo[d]imidazol-1-yl)pyrido[3,2-d]pyrimidin-4-yl)amino)-2,4-difluorophenyl)-3-chloro-4-methylthiophene-2-sulfonamide] | < 1 | < 10 | – | – | – | – | IC50 ([3]; Homo sapiens, HCT-116, HCT116 cells, 1 h treatment): 500 to 1000 nM; HCT116 pERK Ymin % [3, 10]: −5%
11 | Cc1scc(S(=O)(=O)Nc2ccc(F)c(Nc3ncnc4ccc(-n5cnc6ccccc65)nc34)c2F)c1C [Example 320] | 1 to 10 | > 50 | – | – | – | – | IC50 ([3]; HCT116 cells, 1 h treatment): 1000 to 10000 nM; HCT116 pERK Ymin % [3, 10]: −5%
12 | Cc1c(F)cccc1S(=O)(=O)Nc1ccc(F)c(Nc2ncnc3ccc(-n4cnc(/C=C/C#N)c4)nc23)c1F [Example 343, (E)-N-(3-((6-(4-(2-cyanovinyl)-1H-imidazol-1-yl)pyrido[3,2-d]pyrimidin-4-yl)amino)-2,4-difluorophenyl)-3-fluoro-2-methylbenzenesulfonamide] | – | – | – | – | – | – | IC50 [1, 11]: 1 to 10 nM; IC50 [2, 12]: 10 to 50 nM; IC50 [3, 13]: < 500 nM
13 | Cc1c(F)cccc1S(=O)(=O)Nc1ccc(F)c(Nc2ncnc3ccc(-n4cnc5c(CO)cccc54)nc23)c1F [Example 345, N-[2,4-difluoro-3-[[6-[4-(hydroxymethyl)benzimidazol-1-yl]pyrido[3,2-d]pyrimidin-4-yl]amino]phenyl]-3-fluoro-2-methyl-benzenesulfonamide] | – | – | – | – | – | – | IC50 [1, 11]: 1 to 10 nM; IC50 [2, 12]: < 10 nM; IC50 [3, 13]: < 500 nM
14 | CC(=O)N1CCCc2nn(-c3ccc4ncnc(Nc5c(F)ccc(NS(=O)(=O)c6cccc(Cl)c6Cl)c5F)c4n3)cc21 [Example 486] | – | – | – | – | – | – | IC50 [1, 11]: 1 to 10 nM; IC50 [2, 12]: < 10 nM; IC50 [3, 13]: 500 to 1000 nM
15 | O=S(=O)(Nc1ccc(F)c(Nc2ncnc3ccc(-c4cnc5n4CCCC5)nc23)c1F)c1cccc(Cl)c1Cl [Example 561] | – | – | 1 to 10 | < 10 | < 500 | −13 | –
16 | O=S(=O)(Nc1ccc(F)c(Nc2ncnc3ccc(-n4cnc5nccnc54)nc23)c1F)c1cccc(Cl)c1Cl [Example 573] | – | – | > 10 | > 50 | 1000 to 10000 | −1 | –
17 | Cc1ncc(-c2ccc3ncnc(Nc4c(F)ccc(NS(=O)(=O)c5cccc(Cl)c5Cl)c4F)c3n2)[nH]1 [Example 595] | – | – | 1 to 10 | 10 to 50 | 1000 to 10000 | −16 | –
18 | N#CC1(c2cccc3c2nnn3-c2ccc3ncnc(Nc4c(F)ccc(NS(=O)(=O)c5cccc(Cl)c5Cl)c4F)c3n2)CC1 [Example 610] | – | – | 1 to 10 | < 10 | < 500 | −2 | –
19 | O=S(=O)(Nc1ccc(F)c(Nc2ncnc3ccc(-n4cnc5c(C6(CO)CC6)cccc54)nc23)c1F)c1cccc(Cl)c1Cl [Example 612] | – | – | 1 to 10 | < 10 | < 500 | −10 | –
20 | CN1CCN(c2ncc(-c3ccc4ncnc(Nc5c(F)ccc(NS(=O)(=O)c6cccc(Cl)c6Cl)c5F)c4n3)s2)CC1 [Example 613] | – | – | 1 to 10 | 10 to 50 | 500 to 1000 | −3 | –
21 | O=S(=O)(Nc1ccc(F)c(Nc2ncnc3ccc(-n4cnc5c(N6C7CCC6CN(CCO)C7)cccc54)nc23)c1F)c1cccc(Cl)c1Cl [Example 629] | – | – | 1 to 10 | 10 to 50 | – | −2 | –
22 | O=S(=O)(Nc1ccc(F)c(Nc2ncnc3ccc(-c4cnc(N5CCOCC5)s4)nc23)c1F)c1cccc(Cl)c1Cl [Example 631] | – | – | > 10 | 10 to 50 | < 500 | 0 | –
23 | O=S(=O)(Nc1ccc(F)c(Nc2ncnc3ccc(-n4cnc5c(N6CCNCC6)cccc54)nc23)c1F)c1cccc(Cl)c1Cl [Example 634] | – | – | < 1 | < 10 | < 500 | −2 | –
24 | O=S(=O)(Nc1cccc(Nc2ncnc3ccc(-n4cnc5ccccc54)nc23)c1F)c1cccc(Cl)c1Cl [Example 646] | – | – | – | – | – | – | IC50 [1, 7]: 1 to 10 nM; IC50 [2, 8]: 10 to 50 nM; IC50 ([3]; HCT116 cells, Table 5): < 500 nM; HCT116 pERK Ymin % [3, 9]: −3%
25 | O=S(=O)(Nc1cc(F)c(F)c(Nc2ncnc3ccc(-n4cnc5ccccc54)nc23)c1F)c1cccc(Cl)c1Cl [Example 648] | – | – | – | – | – | – | IC50 [1, 7]: 1 to 10 nM; IC50 [2, 8]: < 10 nM; IC50 ([3]; HCT116 cells, Table 5): < 500 nM; HCT116 pERK Ymin % [3, 9]: −1%
26 | O=S(=O)(Nc1cc(F)c(F)c(Nc2ncnc3ccc(-n4nnc5ccccc54)nc23)c1F)c1cccc(Cl)c1Cl [Example 649] | – | – | – | – | – | – | IC50 [1, 7]: 1 to 10 nM; IC50 [2, 8]: < 10 nM; IC50 ([3]; HCT116 cells, Table 5): < 500 nM; HCT116 pERK Ymin % [3, 9]: 3%
27 | O=S(=O)(Nc1ccc(F)c(Nc2ncnc3ccc(-n4cnc5ccccc54)nc23)c1F)c1ccc(C(F)(F)F)cc1Cl [Example 653] | > 10 | > 50 | – | – | – | – | IC50 ([3]; HCT116 cells, 1 h treatment): 1000 to 10000 nM; HCT116 pERK Ymin % [3, 10]: −13%
28 | O=S(=O)(Nc1ccc(F)c(Nc2ncnc3ccc(-n4cnc5c(C6CCNCC6)cccc54)nc23)c1F)c1cccc(Cl)c1Cl [Example 662, 2,3-dichloro-N-[2,4-difluoro-3-[[6-[4-(4-piperidyl)benzimidazol-1-yl]pyrido[3,2-d]pyrimidin-4-yl]amino]phenyl]benzenesulfonamide] | – | – | < 1 | – | – | −6 | IC50 [2]: < 10 nM; IC50 ([3]; Homo sapiens, HCT-116, HCT116 cells): 1000 to 10000 nM
29 | Cc1c(F)cccc1S(=O)(=O)Nc1ccc(F)c(Nc2ncnc3ccc(-n4ncc5c4CN(C)CC5)nc23)c1F [Example 664] | – | – | 1 to 10 | > 50 | 1000 to 10000 | −15 | –
30 | O=S(=O)(Nc1ccc(F)c(Nc2ncnc3ccc(-n4cnc5c(N6CCC(O)(CCO)CC6)cccc54)nc23)c1F)c1cccc(Cl)c1Cl [Example 671] | – | – | < 1 | < 10 | < 500 | −5 | –
